Activity calls are given as the source filed them. No cut-off for these calls is given here.
How the values were obtained:
HCT-116 [1] = assay: Induction of apoptosis in human HCT-116 cells assessed as late apoptotic cells at 0.1 uM incubated for 48 hrs by Annexin V-FITC/propidium iodide staining-based flow cytometric analysis (reference value: 5.80 %); type: functional
HCT-116 [2] = assay: Induction of apoptosis in human HCT-116 cells assessed as early apoptotic cells at 0.1 uM incubated for 48 hrs by Annexin V-FITC/propidium iodide staining-based flow cytometric analysis (reference value: 1.73 %); type: functional
HCT-116 [3] = assay: Inhibition of colony formation in human HCT-116 cells at 3 to 10 nM drug medium changed every three days for 2 weeks by crystal violet staining based analysis; type: functional, cell-based; conditions: dose 3-10 nM, DDE = dose-dependent effect
HCT-116 [4] = assay: Inhibition of colony formation in human HCT-116 cells assessed as reduction in number of colonies at 3 nM drug medium changed every three days for 2 weeks by crystal violet staining based analysis; type: functional, cell-based
SGC-7901 = assay: Antiproliferative activity against human SGC-7901 cells assessed as reduction in cell viability incubated for 72 hrs by WST-8 assay; type: functional, cell-based; conditions: SGC-7901, 72 h
HCT-116 [5] = assay: Induction of apoptosis in human HCT-116 cells assessed as early apoptotic cells at 1 uM incubated for 48 hrs by Annexin V-FITC/propidium iodide staining-based flow cytometric analysis (reference value: 1.73 %); type: functional
[6] = target: T1, Histone deacetylase (Homo sapiens) (UniProt Q13547+O15379+Q9UBN7+Q92769+Q9UQL6+Q8WUI4+Q9BY41+Q96DB2+P56524+Q9UKV0+Q969S8); assay: Inhibition of HDAC in human HCT-116 cells assessed as upregulation of acetylated H3 level at 0.1 to 1 uM incubated for 48 hrs by Western blot analysis; type: cell-based; conditions: dose 0.1-1 µM, DDE = dose-dependent effect
HCT-116 [7] = assay: Inhibition of colony formation in human HCT-116 cells assessed as reduction in size of colonies at 3 nM drug medium changed every three days for 2 weeks by crystal violet staining based analysis; type: functional, cell-based
HL-60 = assay: Antiproliferative activity against human HL-60 cells assessed as reduction in cell viability incubated for 72 hrs by WST-8 assay; type: functional, cell-based; conditions: HL-60, 72 h
HCT-116 [8] = assay: Induction of apoptosis in human HCT-116 cells assessed as late apoptotic cells at 1 uM incubated for 48 hrs by Annexin V-FITC/propidium iodide staining-based flow cytometric analysis (reference value: 5.80 %); type: functional
[9] = Toxicity in BALB/c mouse assessed as drug tolerability at 20 to 40 mg/kg, ip adminstered once daily for 15 days; type: organism-based; conditions: in vivo, 360 h, dose 20-40 mg/kg, time 15 day
MDA-MB-231 = assay: Antiproliferative activity against human MDA-MB-231 cells assessed as reduction in cell viability incubated for 72 hrs by WST-8 assay; type: functional, cell-based; conditions: MDA-MB-231, 72 h
[10] = Toxicity in BALB/c mouse assessed as body weight loss at 20 to 40 mg/kg, ip adminstered once daily for 15 days; type: organism-based; conditions: in vivo, 360 h, dose 20-40 mg/kg, time 15 day
HCT-116 [11] = assay: Inhibition of colony formation in human HCT-116 cells assessed as blockage of anchor growth at 10 nM drug medium changed every three days for 2 weeks by crystal violet staining based analysis; type: functional; conditions: HCT-116, 336 h
Mus musculus [12] = assay: In vivo inhibition of HDAC in HCT-116 cells xenografted in BALB/c mouse assessed as upregulation of alpha tubulin expression at 20 to 40 mg/kg, ip for 15 days by Western blot analysis; type: functional, organism-based; conditions: dose 20-40 mg/kg, time 15.0 day, DDE = dose-dependent effect
A549 = assay: Antiproliferative activity against human A549 cells assessed as reduction in cell viability incubated for 72 hrs by WST-8 assay; type: functional, cell-based; conditions: A549, 72 h
HCT-116 [13] = assay: Induction of apoptosis in human HCT-116 cells at 0.1 to 1 uM incubated for 48 hrs by Annexin V-FITC/propidium iodide staining-based flow cytometric analysis; type: functional, cell-based; conditions: dose 0.1-1 µM, DDE = dose-dependent effect
Mus musculus [14] = assay: In vivo inhibition of HDAC in BALB/c mouse xenografted with HCT-116 cells assessed as upregulation of acetylated H3 expression at 20 to 40 mg/kg, ip for 15 days by Western blot analysis; type: functional, organism-based; conditions: dose 20-40 mg/kg, time 15.0 day, DDE = dose-dependent effect
HCT-116 [15] = assay: Antiproliferative activity against human HCT-116 cells assessed as reduction in cell viability incubated for 72 hrs by WST-8 assay; type: functional, cell-based; conditions: HCT-116, 72 h
Histone deacetylase 1 = Histone deacetylase 1 (Homo sapiens, UniProt Q13547); assay: Inhibition of HDAC1 (unknown origin) using Boc-Lys(Ac)-AMC as substrate incubated for 60 mins by fluorescence plate reader assay
[16] = target: T2, Protein deacetylase HDAC6 (Homo sapiens, UniProt Q9UBN7); assay: Inhibition of HDAC6 (unknown origin) using Boc-Lys(Ac)-AMC as substrate incubated for 60 mins by fluorescence plate reader assay
T2 sequence (Q9UBN7 whole entry): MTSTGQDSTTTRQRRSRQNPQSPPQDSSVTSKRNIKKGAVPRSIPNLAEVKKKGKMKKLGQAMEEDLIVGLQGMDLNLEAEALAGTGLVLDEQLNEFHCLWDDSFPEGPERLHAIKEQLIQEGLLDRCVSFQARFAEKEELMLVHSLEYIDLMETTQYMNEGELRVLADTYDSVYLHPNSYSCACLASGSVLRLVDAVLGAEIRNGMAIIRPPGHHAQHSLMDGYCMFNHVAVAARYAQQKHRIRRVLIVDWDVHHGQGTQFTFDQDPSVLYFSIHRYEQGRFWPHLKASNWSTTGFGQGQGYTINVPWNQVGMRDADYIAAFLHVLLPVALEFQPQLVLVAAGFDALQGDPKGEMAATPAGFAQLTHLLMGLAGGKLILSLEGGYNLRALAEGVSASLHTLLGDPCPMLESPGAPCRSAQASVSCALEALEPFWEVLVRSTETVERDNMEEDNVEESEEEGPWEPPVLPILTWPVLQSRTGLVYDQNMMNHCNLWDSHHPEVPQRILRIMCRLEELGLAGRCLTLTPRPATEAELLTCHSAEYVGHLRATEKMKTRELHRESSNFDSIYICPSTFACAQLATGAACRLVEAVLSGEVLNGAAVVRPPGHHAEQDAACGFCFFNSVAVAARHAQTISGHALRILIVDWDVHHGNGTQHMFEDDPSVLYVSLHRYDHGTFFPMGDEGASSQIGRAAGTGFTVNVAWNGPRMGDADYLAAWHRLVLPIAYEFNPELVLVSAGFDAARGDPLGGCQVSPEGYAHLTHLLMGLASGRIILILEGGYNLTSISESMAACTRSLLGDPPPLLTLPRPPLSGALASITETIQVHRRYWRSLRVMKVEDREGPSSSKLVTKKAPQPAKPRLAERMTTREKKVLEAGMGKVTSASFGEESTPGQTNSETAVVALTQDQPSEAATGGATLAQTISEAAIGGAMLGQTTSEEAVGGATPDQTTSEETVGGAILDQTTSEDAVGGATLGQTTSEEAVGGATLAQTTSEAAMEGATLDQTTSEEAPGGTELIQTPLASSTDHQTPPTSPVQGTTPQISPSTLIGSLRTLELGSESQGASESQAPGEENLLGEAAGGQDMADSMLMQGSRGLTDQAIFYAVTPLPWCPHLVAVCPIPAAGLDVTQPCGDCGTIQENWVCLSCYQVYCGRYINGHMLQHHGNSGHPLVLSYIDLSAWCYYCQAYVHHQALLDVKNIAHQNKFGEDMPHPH

HCT-116 [17] = assay: Antitumor activity against human HCT-116 cells xenografted in BALB/c mouse assessed as inhibition of tumor growth at 40 mg/kg, ip adminstered once daily measured every three days for 15 days by vernier caliper method relative to control; type: functional; set-up: scale not given: the % may be the effect or the level left; conditions: time 15 day
HCT-116 [18] = assay: Induction of cell cycle arrest in human HCT-116 cells assessed as accumulation of cells at G2/M phase at 0.1 to 1 uM incubated for 24 hrs by flow cytometry analysis; type: functional, cell-based; conditions: dose 0.1-1 µM, DDE = dose-dependent effect
HCT-116 [19] = assay: Induction of apoptosis in human HCT-116 cells assessed as increase in cleaved PARP level at 0.1 to 1 uM incubated for 48 hrs by Western blot analysis; type: functional, cell-based; conditions: dose 0.1-1 µM
[20] = target: T1, Histone deacetylase (Homo sapiens); assay: Inhibition of HDAC in human HCT-116 cells assessed as upregulation of acetylated alpha-tubulin level 0.1 to 1 uM incubated for 48 hrs by Western blot analysis; type: cell-based; conditions: dose 0.1-1 µM, DDE = dose-dependent effect
HCT-116 [21] = assay: Antitumor activity against human HCT-116 cells xenografted in BALB/c mouse assessed as inhibition of tumor growth at 20 mg/kg, ip adminstered once daily measured every three days for 15 days by vernier caliper method relative to control; type: functional; set-up: scale not given: the % may be the effect or the level left; conditions: time 15 day

Histone deacetylase 1, sequence (Q13547 whole entry): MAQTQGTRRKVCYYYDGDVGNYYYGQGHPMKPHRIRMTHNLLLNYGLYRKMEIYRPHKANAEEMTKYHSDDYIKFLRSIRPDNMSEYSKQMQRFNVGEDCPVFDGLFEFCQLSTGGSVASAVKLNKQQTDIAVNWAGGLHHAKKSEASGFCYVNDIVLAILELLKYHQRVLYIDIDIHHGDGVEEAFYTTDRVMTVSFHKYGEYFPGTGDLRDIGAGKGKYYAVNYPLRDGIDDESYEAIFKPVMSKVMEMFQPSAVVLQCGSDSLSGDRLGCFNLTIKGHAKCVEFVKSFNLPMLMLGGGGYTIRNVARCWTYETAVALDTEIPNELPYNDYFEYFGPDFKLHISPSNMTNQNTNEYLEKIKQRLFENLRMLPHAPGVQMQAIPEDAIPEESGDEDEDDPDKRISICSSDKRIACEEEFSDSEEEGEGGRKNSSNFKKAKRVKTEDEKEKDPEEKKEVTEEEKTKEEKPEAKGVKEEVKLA

COc1ccc2c(c1)cc(C(=O)NC1C3CC4CC(C3)CC1C4)n2CCCCCCC(=O)NO (stereo unspecified)
Activity (HCT-116 [1]): 29.9% | Activity (HCT-116 [2]): 2.59% | inhibition (HCT-116 [3]): Dde | inhibition (HCT-116 [4]): Active | IC50 (SGC-7901): 40 nM | Activity (HCT-116 [5]): 3.34% | Activity [6]: Dde | inhibition (HCT-116 [7]): Active | IC50 (HL-60): 20 nM | Activity (HCT-116 [8]): 48.8% | Activity [9]: Non-Toxic | IC50 (MDA-MB-231): 460 nM | Activity [10]: Non-Toxic | inhibition at 0.01 µM (HCT-116 [11]): 100% | Activity (Mus musculus [12]): Dde | IC50 (A549): 960 nM | Activity (HCT-116 [13]): Dde | Activity (Mus musculus [14]): Dde | IC50 (HCT-116 [15]): 140 nM | IC50 (Histone deacetylase 1): 1.16 nM | IC50 [16]: 2.3 nM | Activity (HCT-116 [17]): 71.79% | Activity (HCT-116 [18]): Dde | Activity (HCT-116 [19]): Active | Activity [20]: Dde | Activity (HCT-116 [21]): 44.54%

Reference: ChEMBL document CHEMBL5131384, “Design, synthesis, and biological evaluation of indole-based hydroxamic acid derivatives as histone deacetylase inhibitors” (Eur J Med Chem, 2022)
